Measured values reported in PubChem BioAssay (NCI).
Values joined by “and” are separate entries in the source; they are usually repeats but may differ in a detail not shown here. Equal entries are not always repeated.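 A five-concentration, 48-hour dose response in 96-well plates underlies each endpoint, interpolated linearly between surrounding concentrations. Abbreviation: GI50, concentration required for 50% inhibition of growth. The concentration for full growth arrest is given as TGI.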

What was measured:
Experiment in all cases: NCI-60 cell line screen, 48 h
UACC-257 melanoma = tested on: UACC-257 melanoma
UO-31 renal = tested on: UO-31 renal
LOX IMVI melanoma = tested on: LOX IMVI melanoma
TK-10 renal = tested on: TK-10 renal
NCI-H226 lung = tested on: NCI-H226 lung
MDA-MB-231 breast = tested on: MDA-MB-231 breast
MDA-MB-435 = tested on: MDA-MB-435
IGROV1 ovarian = tested on: IGROV1 ovarian
T-47D breast = tested on: T-47D breast
A549 NSCLC = tested on: A549 NSCLC

| Compound | GI50 (UACC-257 melanoma) | TGI (UACC-257 melanoma) | GI50 (UO-31 renal) | TGI (UO-31 renal) | GI50 (LOX IMVI melanoma) [µM] | TGI (LOX IMVI melanoma) [µM] | GI50 (TK-10 renal) | TGI (TK-10 renal) [µM] | GI50 (NCI-H226 lung) [µM] | TGI (NCI-H226 lung) [µM] | GI50 (MDA-MB-231 breast) | TGI (MDA-MB-231 breast) | GI50 (MDA-MB-435) | TGI (MDA-MB-435) | GI50 (IGROV1 ovarian) | TGI (IGROV1 ovarian) | GI50 (T-47D breast) [µM] | TGI (T-47D breast) [µM] | GI50 (A549 NSCLC) | TGI (A549 NSCLC) |
| --- | --- | --- | --- | --- | --- | --- | --- | --- | --- | --- | --- | --- | --- | --- | --- | --- | --- | --- | --- | --- |
| CO/N=C(/C)COc1ccc2c(c1)oc(=O)c1cc(OC)ccc12 | > 100 µM | > 100 µM | 73.8 µM | > 100 µM | > 100 | > 100 | > 100 µM | > 100 | > 100 | > 100 | 34.1 µM | > 100 µM | > 100 µM | > 100 µM | > 100 µM | > 100 µM | > 100 | > 100 | > 100 µM | > 100 µM |
| Cn1c2c(c3ccccc31)CCN1C[C@@H]3CCCC[C@H]3C[C@@H]21 | 8.14 µM | > 100 µM | 2.2 µM | 13.7 µM | 2.99 | > 37.3 | 3.01 µM | 23.2 | 2.75 | > 26.1 | 2.88 µM | 8.66 µM | 1.56 µM | > 20.6 µM | 3.45 µM | > 54.6 µM | 14.1 | > 100 | 3.1 µM | > 100 µM |
| Cc1cc(S(=O)(=O)Nc2nc3ccccc3c(=O)n2Cc2ccco2)c(S)cc1Cl | > 100 µM | > 100 µM | 49.5 µM | > 100 µM | 26.1 | 59.3 | 35 µM | > 100 | 83.6 | > 100 | 38.5 µM | > 100 µM | 41.2 µM | > 100 µM | 36.9 µM | > 100 µM | 15 | 81.4 | 48 µM | > 100 µM |
| COc1cccc2nc(Nc3cccc(NC(=O)c4ccc(N5CCN(C)CC5)c(C(F)(F)F)c4)c3)ccc12 | 1.36 µM | 3.51 µM | 0.734 µM | 1.49 µM | 0.874 | 1.57 | 2.01 µM | 6.62 | 2.26 | 8.61 | 1.55 µM | 5.88 µM | 0.878 µM | 1.73 µM | 1.25 µM | 4.24 µM | 1 | 3.37 | 1.43 µM | 5.03 µM |
| C[n+]1cccc(NC(=O)c2ccc3ccc4ccc(C(=O)Nc5ccc[n+](C)c5)nc4c3n2)c1 | > 100 µM | > 100 µM | > 20.2 µM | > 100 µM | 5.6 | > 100 | 53.7 µM | > 100 | 0.121 | 0.693 | 2.41 µM | > 52.4 µM | 6.2 µM | > 100 µM | 1.51 µM | > 100 µM | 0.52 | > 100 | 0.155 µM | > 100 µM |
| CS(=O)(=O)Nc1cc(-c2ccc3ncc(C#N)c(Nc4ccc(F)c(Cl)c4)c3c2)cnc1Cl | 0.194 µM | 2.14 µM | 0.125 µM | 1.03 µM | 0.169 | 0.698 | 0.166 µM | 0.793 | 0.258 | 2.16 | 0.237 µM | 0.786 µM | 0.22 µM | 1.85 µM | 0.0609 µM | 0.372 µM | 0.0351 | 0.403 | 0.468 µM | 3.12 µM |
| COc1ccc2[nH]c(C(=O)OCc3ccc4c(Br)cc(Br)c(O)c4n3)cc2c1 | 1.38 µM | 2.85 µM | 0.36 µM | 1.85 µM | 0.188 | 0.453 | 1.39 µM | 2.71 | 1.3 | 2.81 | 0.808 µM | 2.17 µM | 0.836 µM | 2.2 µM | 0.418 µM | 1.67 µM | 1.15 | 3.57 | 1.63 µM | 3.54 µM |
| COc1ccc(N=Nc2ccc(O)c(=O)cc2)cc1 | 3.12 µM | > 100 µM | 2.91 µM | > 100 µM | 2.44 | 27 | 5.8 µM | > 100 | 3.73 | > 100 | 4.62 µM | > 100 µM | 4.02 µM | > 100 µM | 3.86 µM | > 100 µM | 2.64 | > 100 | 3.02 µM | > 100 µM |
| N#CC1=C(N)N=C(N2CCOCC2)C(C#N)C12Nc1ccccc1S2 (centres undefined) | 28 µM | 89.1 µM | 16.4 µM | 61.4 µM | 16.5 | 41.1 | 14 µM | 49.2 | 27.8 | > 100 | 26.7 µM | > 100 µM | 22.9 µM | 61.1 µM | 67.3 µM | > 100 µM | 27.3 | 88.2 | 33.3 µM | > 100 µM |
| COc1cc(/C=C2\CC3C4CCC5=CC(=O)CC[C@]5(C)C4CC[C@]3(C)C2=O)ccc1OCCN1CCCC1 (some centres undefined) | 2.5 µM | 6.15 µM | 1.68 µM | 3.38 µM | 2.01 | 3.97 | 1.51 µM | 3.92 | 1.81 | 7.08 | 2.01 µM | 5.1 µM | 2.15 µM | 4.86 µM | 2.33 µM | 5.73 µM | 3.29 | 9.21 | 4.45 µM | > 100 µM |
| NS(=O)(=O)c1ccc(N=Nc2c(O)[nH]c3ccc(C(=O)NCCCn4ccnc4)cc23)cc1 | > 25 µM | > 25 µM | > 25 µM | > 25 µM | > 25 | > 25 | > 25 µM | > 25 | > 25 | > 25 | > 25 µM | > 25 µM | > 25 µM | > 25 µM | > 25 µM | > 25 µM | > 25 | > 25 | > 25 µM | > 25 µM |
| CC[C@]12C=CCN3CC[C@]4(C(=C(C(=O)OC)C1)Nc1cc5c(cc14)[C@@H]1[C@H](O5)[C@@H](O)[C@@]4(CC)CC(C(=O)OC)=C5Nc6ccccc6[C@@]56CCN1[C@@H]46)[C@@H]32 | 0.582 µM and 0.672 µM | 25 µM and 42.8 µM | 0.0951 µM and 0.127 µM | 3.31 µM and 6.25 µM | 0.39 | 2.35 | 0.185 µM and 0.402 µM |  | 0.688 | 25 | 0.155 µM and 0.395 µM | 10.2 µM and 28.9 µM | 0.395 µM and 0.309 µM | 25 µM and 10.8 µM | 0.156 µM and 0.253 µM | 3.99 µM and 14 µM | 0.335 | > 100 | 1.2 µM and 0.875 µM | 12.7 µM and > 100 µM |
